Data from US20210267944A1 (BioXcel Therapeutics, Inc., priority 2018, published 2021).
Where a name gives a salt, the structure may show the parent alone. Read-outs that look alike come from different tables or passages of the source.

Tested on: subjects suffering from opiate withdrawal symptoms
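Further: inpatients in opioid withdrawal given intravenous infusion titrated upward every 30 min (up to 0.1 mcg/kg/hr steps) until COWS total, a clinician-rated 11-item withdrawal scale, fell by half.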

Cc1cccc([C@H](C)c2cnc[nH]2)c1C [dexmedetomidine hydrochloride]
COW score (Day 1, Patient OP-1 (Treatment), 00:00 Hr): 9
COW score (Day 1, Patient OP-1 (Treatment), 00:15 Hr): 2
COW score (Day 1, Patient OP-1 (Treatment), 30 min. post Infusion): 0
COW score (Day 1, Patient OP-2 (Treatment), 00:00 Hr): 15
COW score (Day 1, Patient OP-2 (Treatment), 00:15 Hr): 11
COW score (Day 1, Patient OP-2 (Treatment), 00:30 Hr): 9
COW score (Day 1, Patient OP-2 (Treatment), 00:45 Hr): 12
COW score (Day 1, Patient OP-2 (Treatment), 01:00 Hr): 2
COW score (Day 1, Patient OP-2 (Treatment), 30 min. post Infusion): 16
COW score (Day 1, Patient OP-3 (Treatment), 00:00 Hr): 13
COW score (Day 1, Patient OP-3 (Treatment), 00:15 Hr): 8
COW score (Day 1, Patient OP-3 (Treatment), 00:30 Hr): 8
COW score (Day 1, Patient OP-3 (Treatment), 00:45 Hr): 4
COW score (Day 1, Patient OP-3 (Treatment), 30 min. post Infusion): 3
COW score (Day 1, Patient OP-6 (Treatment), 00:00 Hr): 11
COW score (Day 1, Patient OP-6 (Treatment), 00:15 Hr): 7
COW score (Day 1, Patient OP-6 (Treatment), 00:30 Hr): 2
COW score (Day 1, Patient OP-6 (Treatment), 30 min. post Infusion): 2
COW score (Day 1, Patient OP-7 (Treatment), 00:00 Hr): 10
COW score (Day 1, Patient OP-7 (Treatment), 00:15 Hr): 8
COW score (Day 1, Patient OP-7 (Treatment), 30 min. post Infusion): 0
COW score (Day 1, Patient OP-9 (Treatment), 00:00 Hr): 16
COW score (Day 1, Patient OP-9 (Treatment), 00:15 Hr): 13
COW score (Day 1, Patient OP-9 (Treatment), 00:30 Hr): 10
COW score (Day 1, Patient OP-9 (Treatment), 00:45 Hr): 9
COW score (Day 1, Patient OP-9 (Treatment), 01:00 Hr): 10
COW score (Day 1, Patient OP-9 (Treatment), 01:15 Hr): 6
COW score (Day 1, Patient OP-9 (Treatment), 30 min. post Infusion): 9
COW score (Day 1, Patient OP-10 (Treatment), 00:00 Hr): 10
COW score (Day 1, Patient OP-10 (Treatment), 00:15 Hr): 7
COW score (Day 1, Patient OP-10 (Treatment), 00:30 Hr): 1
COW score (Day 1, Patient OP-10 (Treatment), 30 min. post Infusion): 3
COW score (Day 1, Patient OP-11 (Treatment), 00:00 Hr): 16
COW score (Day 1, Patient OP-11 (Treatment), 00:15 Hr): 16
COW score (Day 1, Patient OP-11 (Treatment), 00:45 Hr): 13
COW score (Day 1, Patient OP-11 (Treatment), 01:00 Hr): 14
COW score (Day 1, Patient OP-11 (Treatment), 01:15 Hr): 10
COW score (Day 1, Patient OP-11 (Treatment), 01:30 Hr): 8
COW score (Day 1, Patient OP-11 (Treatment), 30 min. post Infusion): 8
COW score (Day 1, Patient OP-12 (Treatment), 00:00 Hr): 16
COW score (Day 1, Patient OP-12 (Treatment), 00:15 Hr): 12
COW score (Day 1, Patient OP-12 (Treatment), 00:30 Hr): 9
COW score (Day 1, Patient OP-12 (Treatment), 00:45 Hr): 9
COW score (Day 1, Patient OP-12 (Treatment), 01:00 Hr): 10
COW score (Day 1, Patient OP-12 (Treatment), 01:15 Hr): 9
COW score (Day 1, Patient OP-12 (Treatment), 01:30 Hr): 4
COW score (Day 1, Patient OP-12 (Treatment), 30 min. post Infusion): 5
COW score (Day 1, Patient OP-15 (Treatment), 00:00 Hr): 13
COW score (Day 1, Patient OP-15 (Treatment), 00:15 Hr): 8
COW score (Day 1, Patient OP-15 (Treatment), 00:30 Hr): 4
COW score (Day 1, Patient OP-15 (Treatment), 30 min. post Infusion): 4
COW score (Day 1, Patient OP-17 (Treatment), 00:00 Hr): 10
COW score (Day 1, Patient OP-17 (Treatment), 00:15 Hr): 11
COW score (Day 1, Patient OP-17 (Treatment), 00:30 Hr): 9
COW score (Day 1, Patient OP-17 (Treatment), 00:45 Hr): 8
COW score (Day 1, Patient OP-17 (Treatment), 01:00 Hr): 4
COW score (Day 1, Patient OP-17 (Treatment), 30 min. post Infusion): 5
COW score (Day 2, Patient OP-1 (Treatment), 00:00 Hr): 9
COW score (Day 2, Patient OP-1 (Treatment), 00:15 Hr): 8
COW score (Day 2, Patient OP-1 (Treatment), 00:30 Hr): 2
COW score (Day 2, Patient OP-1 (Treatment), last cell, 30 min. post Infusion): 0
COW score (Day 2, Patient OP-2 (Treatment), 00:00 Hr): 14
COW score (Day 2, Patient OP-2 (Treatment), 00:15 Hr): 11
COW score (Day 2, Patient OP-2 (Treatment), 00:30 Hr): 12
COW score (Day 2, Patient OP-2 (Treatment), 00:45 Hr): 10
COW score (Day 2, Patient OP-2 (Treatment), 01:00 Hr): 9
COW score (Day 2, Patient OP-2 (Treatment), 01:15 Hr): 7
COW score (Day 2, Patient OP-2 (Treatment), last cell, 30 min. post Infusion): 4
COW score (Day 2, Patient OP-3 (Treatment), 00:00 Hr): 10
COW score (Day 2, Patient OP-3 (Treatment), 00:15 Hr): 8
COW score (Day 2, Patient OP-3 (Treatment), 00:30 Hr): 6
COW score (Day 2, Patient OP-3 (Treatment), 00:45 Hr): 4
COW score (Day 2, Patient OP-3 (Treatment), last cell, 30 min. post Infusion): 4
COW score (Day 2, Patient OP-9 (Treatment), 00:30 Hr): 14
COW score (Day 2, Patient OP-9 (Treatment), 00:45 Hr): 14
COW score (Day 2, Patient OP-9 (Treatment), 01:00 Hr): 14
COW score (Day 2, Patient OP-9 (Treatment), 01:15 Hr): 12
COW score (Day 2, Patient OP-9 (Treatment), 01:30 Hr): 12
COW score (Day 2, Patient OP-9 (Treatment), 01:45 Hr): 12
COW score (Day 2, Patient OP-9 (Treatment), 02:00 Hr): 9
COW score (Day 2, Patient OP-9 (Treatment), last cell, 30 min. post Infusion): 9
COW score (Day 2, Patient OP-17 (Treatment), 00:00 Hr): 14
COW score (Day 2, Patient OP-17 (Treatment), 00:15 Hr): 14
COW score (Day 2, Patient OP-17 (Treatment), 00:30 Hr): 12
COW score (Day 2, Patient OP-17 (Treatment), 00:45 Hr): 11
COW score (Day 2, Patient OP-17 (Treatment), 01:00 Hr): 5
COW score (Day 2, Patient OP-17 (Treatment), last cell, 30 min. post Infusion): 5
Efficacy (Primary/secondary end points): subjects with COWS greater than or equal to 50% reduction (Opioid withdrawal Study): 11/11 COWS
Range of efficacious dose of IV dexmedetomidine hydrochloride (Opioid withdrawal Study, continuous infusion): 0.2 to 0.7 µg/kg/h
effect on physiological symptoms of opioid withdrawal (COWS) (opioid withdrawal): effectively mitigated the physiological symptoms of opioid withdrawal
subjects who achieved 50% reduction in COW score (opioid withdrawal, Day 1): 10 out of 10
optimal dose at 50% of the COW score achieved, Max (opioid withdrawal, Day 1, n=10): 0.4 µg/kg/h
optimal dose at 50% of the COW score achieved, Mean ± Sd (mean infusion rate) (opioid withdrawal, Day 1, n=10): 0.29 µg/kg/h
optimal dose at 50% of the COW score achieved, Median (opioid withdrawal, Day 1, n=10): 0.3 µg/kg/h
optimal dose at 50% of the COW score achieved, Min (opioid withdrawal, Day 1, n=10): 0.2 µg/kg/h
optimal dose at 50% of the COW score achieved, Mean ± Sd (mean infusion rate) (opioid withdrawal, Day 1, n=10, listed as Test): 0.29 ± 0.08 µg/kg/h
patients in the treatment arm who achieved 50% reduction in COW score (opioid withdrawal, Day 2): 5 out of 5
optimal dose at 50% of the COW score achieved, Max (opioid withdrawal, Day 2, n=5): 0.7 µg/kg/h
optimal dose at 50% of the COW score achieved, Mean ± Sd (mean infusion rate) (opioid withdrawal, Day 2, n=5): about 0.44 mcg/kg/hr
optimal dose at 50% of the COW score achieved, Median (opioid withdrawal, Day 2, n=5): 0.4 µg/kg/h
optimal dose at 50% of the COW score achieved, Min (opioid withdrawal, Day 2, n=5): 0.2 µg/kg/h
optimal dose at 50% of the COW score achieved, Mean ± Sd (mean infusion rate) (opioid withdrawal, Day 2, n=5, listed as Test): 0.44 ± 0.16 µg/kg/h
